Data: patent US8563714B2, “Bridged spiro [2.4] heptane derivatives as ALX receptor and/or FPRL2 agonists” (Actelion Pharmaceuticals Ltd., priority 2009, dated 2013)

How the values were obtained:
human ALX receptor = biological target: T1, human ALX receptor (Homo sapiens, UniProt P25090); test: Intracellular calcium measurements (FLIPR), agonistic activity in HEK293-hALXR-Gα16 cells; type: cell-based; settings: Fluo-4 calcium FLIPR, normalized to WKYMVm 10 nM
T1 construct: expressed in transfected cells; host or cells: HEK293 (HEK293-hALXR-Gα16)
T1 sequence (P25090 1-351): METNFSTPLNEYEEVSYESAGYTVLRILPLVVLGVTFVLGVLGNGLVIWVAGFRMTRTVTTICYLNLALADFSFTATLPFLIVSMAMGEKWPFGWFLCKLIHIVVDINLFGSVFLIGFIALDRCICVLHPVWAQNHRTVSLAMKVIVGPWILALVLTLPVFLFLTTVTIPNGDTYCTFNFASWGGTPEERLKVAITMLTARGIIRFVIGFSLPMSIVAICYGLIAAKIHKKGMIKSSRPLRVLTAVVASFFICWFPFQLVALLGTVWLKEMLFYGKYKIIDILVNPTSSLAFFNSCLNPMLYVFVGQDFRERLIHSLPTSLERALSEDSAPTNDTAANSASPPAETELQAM
Method in brief: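 HEK293 cells expressing hALXR and Gα16 were loaded with 1 μM Fluo-4 AM and 20 mM HEPES for 60 min at 37°C, then exposed to serially diluted compound. FLIPR fluorescence was read at ex 488/em 540 nm. Baseline-subtracted peak responses were normalized to 10 nM WKYMVm.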

human FPRL2 = biological target: T2, human FPRL2 (Homo sapiens, UniProt P25089); test: Intracellular calcium measurements (FLIPR), agonistic activity in HEK293-hFPRL2-Gα16 cells; type: cell-based; settings: Fluo-4 calcium FLIPR, normalized to GLY14-Humanin 100 nM
T2 construct: expressed in transfected cells; host or cells: HEK293 (HEK293-hFPRL2-Gα16)
T2 sequence (P25089 1-353): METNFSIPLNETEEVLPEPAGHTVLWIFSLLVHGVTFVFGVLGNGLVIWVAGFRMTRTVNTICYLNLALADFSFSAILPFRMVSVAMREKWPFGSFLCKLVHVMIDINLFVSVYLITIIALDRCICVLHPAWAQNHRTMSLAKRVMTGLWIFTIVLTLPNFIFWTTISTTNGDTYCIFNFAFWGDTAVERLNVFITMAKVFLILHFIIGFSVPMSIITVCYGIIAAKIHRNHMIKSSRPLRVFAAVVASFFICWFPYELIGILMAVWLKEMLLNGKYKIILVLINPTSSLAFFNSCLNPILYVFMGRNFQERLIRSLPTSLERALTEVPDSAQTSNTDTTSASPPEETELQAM
Method in brief: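 Peak values after baseline subtraction are expressed relative to 100 nM Gly14-Humanin; compounds diluted in assay buffer from 10 mM DMSO stocks.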

SMILES	EC50 (human ALX receptor) [nM]	EC50 (human FPRL2) [nM]
COc1cc(F)c(CNC(=O)[C@H]2[C@H](C(=O)NCCCCN3CCCC3)[C@H]3C=C[C@@H]2C32CC2)c(F)c1 (racemic) [Example 226, (5R*)—N^5-(2,6-Difluoro-4-methoxy-phenyl-methyl)-(6R*)—N^6-(4-pyrrolidin-1-yl-butyl)-(4S*,7R*)-[4,7-ethenylene-spiro[2.4]heptane]-5,6-dicarboxamide]	912	356
COc1ccc(CNC(=O)[C@H]2[C@H](C(=O)NCCCCN3CCCC3)[C@H]3C=C[C@@H]2C32CC2)c(F)c1F (racemic) [Example 227, (5R*)—N^5-(2,3-Difluoro-4-methoxy-phenyl-methyl)-(6R*)—N^6-(4-pyrrolidin-1-yl-butyl)-(4S*,7R*)-[4,7-ethenylene-spiro[2.4]heptane]-5,6-dicarboxamide]	290	89
COc1ccc(CNC(=O)[C@H]2[C@H](C(=O)NCCCCN3CCCC3)[C@H]3C=C[C@@H]2C32CC2)cc1F (racemic) [Example 228, (5R*)—N^5-(3-Fluoro-4-methoxy-phenyl-methyl)-(6R*)—N^6-(4-pyrrolidin-1-yl-butyl)-(4S*,7R*)-[4,7-ethenylene-spiro[2.4]heptane]-5,6-dicarboxamide]	389	308
COc1c(F)cc(CNC(=O)[C@H]2[C@H](C(=O)NCCCCN3CCCC3)[C@H]3C=C[C@@H]2C32CC2)cc1F (racemic) [Example 229, (5R*)—N^5-(3,5-Difluoro-4-methoxy-phenyl-methyl)-(6R*)—N^6-(4-pyrrolidin-1-yl-butyl)-(4S*,7R*)-[4,7-ethenylene-spiro[2.4]heptane]-5,6-dicarboxamide]	119	67
O=C(NCCCCN1CCCC1)[C@H]1[C@H](C(=O)NCc2ccc(Cl)cc2)[C@@H]2C=C[C@H]1C21CC1 (racemic) [Example 230, (5R*)—N^5-(4-Chloro-phenyl-methyl)-(6R*)—N^6-(4-pyrrolidin-1-yl-butyl)-(4S*,7R*)-[4,7-ethenylene-spiro[2.4]heptane]-5,6-dicarboxamide]	31	65
O=C(NCCCCN1CCCC1)[C@H]1[C@H](C(=O)NCc2ccc(F)cc2)[C@@H]2C=C[C@H]1C21CC1 (racemic) [Example 231, (5R*)—N^5-(4-Fluoro-phenyl-methyl)-(6R*)—N^6-(4-pyrrolidin-1-yl-butyl)-(4S*,7R*)-[4,7-ethenylene-spiro[2.4]heptane]-5,6-dicarboxamide]	514	159
O=C(NCCCCN1CCCC1)[C@H]1[C@H](C(=O)NCc2ccc(OC(F)(F)F)cc2)[C@@H]2C=C[C@H]1C21CC1 (racemic) [Example 232, (5R*)—N^5-(4-Trifluoromethoxy-phenyl-methyl)-(6R*)—N^6-(4-pyrrolidin-1-yl-butyl)-(4S*,7R*)-[4,7-ethenylene-spiro[2.4]heptane]-5,6-dicarboxamide]	1260	112
CC(C)Oc1ccc(CNC(=O)[C@H]2[C@H](C(=O)NCCCCN3CCCC3)[C@H]3C=C[C@@H]2C32CC2)cc1 (racemic) [Example 233, (5R*)—N^5-(4-Isopropoxy-phenyl-methyl)-(6R*)—N^6-(4-pyrrolidin-1-yl-butyl)-(4S*,7R*)-[4,7-ethenylene-spiro[2.4]heptane]-5,6-dicarboxamide]	7220	197
O=C(NCCCCN1CCCC1)[C@H]1[C@H](C(=O)NCc2nc(Br)cs2)[C@@H]2C=C[C@H]1C21CC1 (racemic) [Example 234, (5R*)—N^5-(4-Bromo-thiazol-2-yl-methyl)-(6R*)—N^6-(4-pyrrolidin-1-yl-butyl)-(4S*,7R*)-[4,7-ethenylene-spiro[2.4]heptane]-5,6-dicarboxamide]	73	176
CC(=O)c1nc(CNC(=O)[C@H]2[C@H](C(=O)NCCCCN3CCCC3)[C@H]3C=C[C@@H]2C32CC2)co1 (racemic) [Example 235, (5R*)—N^5-(2-Acetyl-oxazol-4-yl-methyl)-(6R*)—N^6-(4-pyrrolidin-1-yl-butyl)-(4S*,7R*)-[4,7-ethenylene-spiro[2.4]heptane]-5,6-dicarboxamide]	153	181
O=C(NCCCN1CCCC1)[C@H]1[C@H](C(=O)NCc2ccc(Br)cc2)[C@@H]2C=C[C@H]1C21CC1 (racemic) [Example 236, (5R*)—N^5-(4-Bromo-phenyl-methyl)-(6R*)—N^6-(3-pyrrolidin-1-yl-propyl)-(4S*,7R*)-[4,7-ethenylene-spiro[2.4]heptane]-5,6-dicarboxamide]	49	292
O=C(NCCCN1CCCC1)[C@H]1[C@H](C(=O)Nc2ncc(Br)s2)[C@@H]2C=C[C@H]1C21CC1 (racemic) [Example 237, (5R*)—N^5-(5-Bromo-thiazol-2-yl)-(6R*)—N^6-(3-pyrrolidin-1-yl-propyl)-(4S*,7R*)-[4,7-ethenylene-spiro[2.4]heptane]-5,6-dicarboxamide]	305	542
CC(=O)c1coc(CNC(=O)[C@H]2[C@H](C(=O)NCCCCN3CCCC3)[C@H]3C=C[C@@H]2C32CC2)n1 (racemic) [Example 243, (5R*)—N^5-(4-Acetyl-oxazol-2-yl-methyl)-(6R*)—N^6-(4-pyrrolidin-1-yl-butyl)-(4S*,7R*)-[4,7-ethenylene-spiro[2.4]heptane]-5,6-dicarboxamide]	170	2300
CC(=O)c1csc(CNC(=O)[C@H]2[C@H](C(=O)NCC(C)C)[C@H]3C=C[C@@H]2C32CC2)n1 (racemic) [Example 244, (5R*)—N^5-(4-Acetyl-thiazol-2-yl-methyl)-(6R*)—N^6-(isobutyl)-(4S*,7R*)-[4,7-ethenylene-spiro[2.4]heptane]-5,6-dicarboxamide]	369	> 25000
CC(C)CNC(=O)[C@H]1[C@H](C(=O)NCc2ccc(Br)cc2)[C@@H]2C=C[C@H]1C21CC1 (racemic) [Example 246, (5R*)—N^5-(4-Bromo-phenyl-methyl)-(6R*)—N^6-(isobutyl)-(4S*,7R*)-[4,7-ethenylene-spiro[2.4]heptane]-5,6-dicarboxamide]	191	5330
CC(=O)c1csc(CNC(=O)[C@H]2[C@H](C(=O)NCCCc3nc4ccccc4[nH]3)[C@H]3C=C[C@@H]2C32CC2)n1 (racemic) [Example 247, (5R*)—N^5-(4-Acetyl-thiazol-2-yl-methyl)-(6R*)—N^6-(3-(1H-benzoimidazol-2-yl)-propyl)-(4S*,7R*)-[4,7-ethenylene-spiro[2.4]heptane]-5,6-dicarboxamide]	106	1080
O=C(NCCCc1nc2ccccc2[nH]1)[C@H]1[C@H](C(=O)Nc2ncc(Br)s2)[C@@H]2C=C[C@H]1C21CC1 (racemic) [Example 248, (5R*)—N^5-(5-Bromo-thiazol-2-yl)-(6R*)—N^6-(3-(1H-benzoimidazol-2-yl)-propyl)-(4S*,7R*)-[4,7-ethenylene-spiro[2.4]heptane]-5,6-dicarboxamide]	174	3060
O=C(NCCCc1nc2ccccc2[nH]1)[C@H]1[C@H](C(=O)NCc2ccc(Br)cc2)[C@@H]2C=C[C@H]1C21CC1 (racemic) [Example 249, (5R*)—N^5-(4-Bromo-phenyl-methyl)-(6R*)—N^6-(3-(1H-benzoimidazol-2-yl)-propyl)-(4S*,7R*)-[4,7-ethenylene-spiro[2.4]heptane]-5,6-dicarboxamide]	216	47
COc1ccc(NC(=O)[C@H]2[C@H](C(=O)NCCCCN3CCCC3)[C@H]3C=C[C@@H]2C32CC2)cn1 (racemic) [Example 250, (5R*)—N^5-(2-Methoxy-pyrid-5-yl)-(6R*)—N^6-(4-pyrrolidin-1-yl-butyl)-(4S*,7R*)-[4,7-ethenylene-spiro[2.4]heptane]-5,6-dicarboxamide]	673	746
O=C(NCCCCN1CCCC1)[C@H]1[C@H](C(=O)Nc2cnc(Br)cn2)[C@@H]2C=C[C@H]1C21CC1 (racemic) [Example 251, (5R*)—N^5-(2-Bromo-pyrazin-5-yl)-(6R*)—N^6-(4-pyrrolidin-1-yl-butyl)-(4S*,7R*)-[4,7-ethenylene-spiro[2.4]heptane]-5,6-dicarboxamide]	7.9	558
